In the experiment the target is T1, human RNR (histidine tagged human M1 and human M2 proteins) (Homo sapiens, UniProt P23921).
T1 construct: made in house; host or cells: Escherichia coli
T1 sequence (P23921 1-792): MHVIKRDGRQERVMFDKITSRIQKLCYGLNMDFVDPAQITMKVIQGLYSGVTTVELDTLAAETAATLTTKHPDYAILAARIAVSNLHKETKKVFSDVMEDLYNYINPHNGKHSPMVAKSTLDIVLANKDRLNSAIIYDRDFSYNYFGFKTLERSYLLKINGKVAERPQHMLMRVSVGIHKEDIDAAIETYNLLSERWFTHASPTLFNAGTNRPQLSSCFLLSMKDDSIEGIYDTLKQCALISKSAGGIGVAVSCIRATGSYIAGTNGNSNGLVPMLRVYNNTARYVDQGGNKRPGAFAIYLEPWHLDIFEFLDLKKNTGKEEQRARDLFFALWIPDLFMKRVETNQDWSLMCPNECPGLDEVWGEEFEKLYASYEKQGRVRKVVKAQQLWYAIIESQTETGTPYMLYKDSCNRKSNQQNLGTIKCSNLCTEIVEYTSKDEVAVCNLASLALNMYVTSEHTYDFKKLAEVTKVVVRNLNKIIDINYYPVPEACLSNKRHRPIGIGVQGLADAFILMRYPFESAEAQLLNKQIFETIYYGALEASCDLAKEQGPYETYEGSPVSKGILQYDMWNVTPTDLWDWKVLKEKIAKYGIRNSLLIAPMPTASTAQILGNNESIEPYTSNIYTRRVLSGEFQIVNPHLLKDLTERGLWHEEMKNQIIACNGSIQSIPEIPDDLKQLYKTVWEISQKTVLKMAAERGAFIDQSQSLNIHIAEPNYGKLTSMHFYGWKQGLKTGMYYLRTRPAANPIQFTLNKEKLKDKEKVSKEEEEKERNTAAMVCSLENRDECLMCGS
Briefly: Human RNR inhibition effect (dCDP formation from CDP). Type of experiment: biochemical. To be noted: 10 μM CDP, 37° C. for 30 minutes, read-out: RNR inhibitory activity IC50. The procedure: The inhibitory activity against the ribonucleotide reduction reaction (RNR inhibitory activity) of the Example compound was determined by measuring the formation of deoxycytidine diphosphate (hereinafter referred to as dCDP) from cytidine diphosphate (hereinafter referred to as CDP) by the following method.
Human M1 subunit (isoform 1, GenBank accession No: NM_001033), to which a histidine tag is fused at the amino terminus, and human M2 subunit (mutant lacking amino terminal 59 amino acids of isoform 2, GenBank accession No: NM_001034), to which a histidine tag is fused, were overexpressed in Escherichia coli and were solubilized after collection, and histidine tagged human M1 and histidine tagged human M2 proteins were purified on a nickel chelate column. A mixture of the histidine tagged human M1 and histidine tagged human M2 proteins was used as RNR in the ribonucleotide reduction reaction. [to]
First, Example compounds were serially diluted with DMSO. Next, human M1 protein and human M2 protein were added to a 0.02% aqueous albumin solution derived from fetal bovine serum, a DMSO solution of the Example compound or the control DMSO solution (final concentration of DMSO was 1%) was added, and the mixture was allowed to stand for 20 minutes. Thereafter, the reaction buffer [50 mM HEPES buffer (pH 7.2) at the final concentration, 4 mM magnesium acetate at the final concentration, 100 mM potassium chloride at the final concentration, 6 mM dithiothreitol at the final concentration, 2 mM adenosine triphosphate at the final concentration, 0.24 mM nicotinamide adenine dinucleotide phosphate at final concentration] and 10 μM CDP at the final concentration were added and incubated at 37° C. for 30 minutes to perform ribonucleotide reduction reaction. Immediately after the reaction, the reaction was stopped by heating at 100° C. for 15 minutes, followed by centrifugation at 10,000 rpm for 10 minutes. After the centrifugation, a portion (5 μL) of the resulting supernatant was analyzed with a high performance liquid chromatography (Shimadzu Corporation, Prominence) using Shim-pack XR-ODS (manufactured by Shimadzu GLC Co., 3.0×100 mm).

Consider 20 molecules from US20200405697A1, “Antitumor Agent” (Taiho Pharmaceutical Co., Ltd, priority 2017, published 2020).

By IC50 is commonly meant the concentration needed to halve the response being measured. For the molecule `Cc1ccc(F)c([C@@H](C)[C@H](NS(=O)(=O)c2ccc(Cl)c(S(N)(=O)=O)c2)c2n[nH]c(=O)o2)c1C` [Example 176, 4-chloro-N1-((1S,2R)-2-(6-fluoro-2,3-dimethylphenyl)-1-(5-oxo-4,5-dihydro-1,3,4-oxadiazol-2-yl)propyl)benzene-1,3-disulfonamide], the IC50 was 810 nM.
As for `CC(=O)NC1CCOc2c(S(=O)(=O)N[C@H](c3n[nH]c(=O)o3)[C@H](C)c3c(F)ccc(C)c3C)ccc(Cl)c21` (stereo partly drawn) [Example 157, N-(5-chloro-8-(N-((1S,2R)-2-(6-fluoro-2,3-dimethylphenyl)-1-(5-oxo-4,5-dihydro-1,3,4-oxadiazol-2-yl)propyl)sulfamoyl)chroman-4-yl)acetamide], the figure is 100 nM; as for `Cc1ccc(F)c([C@@H](C)[C@H](NS(=O)(=O)c2ccc3c(c2)N(C)CCC3)c2n[nH]c(=O)o2)c1C` [Example 184, N-((1S,2R)-2-(6-fluoro-2,3-dimethylphenyl)-1-(5-oxo-4,5-dihydro-1,3,4-oxadiazol-2-yl)propyl)-1-methyl-1,2,3,4-tetrahydroquinoline-7-sulfonamide], 220 nM; as for `COc1cc(Cl)ccc1S(=O)(=O)N[C@H](c1n[nH]c(=O)o1)C(C)c1c(F)c(F)cc(C)c1Br` (stereo partly drawn) [Example 89, N-((1S)-2-(2-bromo-5,6-difluoro-3-methylphenyl)-1-(5-oxo-4,5-dihydro-1,3,4-oxadiazol-2-yl)propyl)-4-chloro-2-methoxybenzenesulfonamide], 420 nM.
As for `Cc1ccc(F)c([C@@H](C)[C@H](NS(=O)(=O)c2ccc(Cl)cc2OC(F)F)c2n[nH]c(=O)o2)c1C` [Example 146, 4-chloro-2-(difluoromethoxy)-N-((1S,2R)-2-(6-fluoro-2,3-dimethylphenyl)-1-(5-oxo-4,5-dihydro-1,3,4-oxadiazol-2-yl)propyl)benzenesulfonamide], the figure is 260 nM; as for `COc1c(S(=O)(=O)N[C@H](c2n[nH]c(=O)o2)[C@H](C)c2c(F)ccc(C)c2C)ccc(Cl)c1C(C)=O` [Example 294, 3-acetyl-4-chloro-N-((1S,2R)-2-(6-fluoro-2,3-dimethylphenyl)-1-(5-oxo-4,5-dihydro-1,3,4-oxadiazol-2-yl)propyl)-2-methoxybenzenesulfonamide], 110 nM.
`COC(=O)c1nc(S(=O)(=O)N[C@H](c2n[nH]c(=O)o2)[C@H](C)c2c(F)ccc(C)c2C)ccc1Cl` [Example 109, methyl 3-chloro-6-(N-((1S,2R)-2-(6-fluoro-2,3-dimethylphenyl)-1-(5-oxo-4,5-dihydro-1,3,4-oxadiazol-2-yl)propyl)sulfamoyl)picolinate]: the half-maximal inhibitory concentration (IC50) worked out at 60 nM.
As for `Cc1ccc(F)c([C@@H](C)[C@H](NS(=O)(=O)c2cc(F)c(Cl)cc2C(N)=O)c2n[nH]c(=O)o2)c1C` [Example 255, 5-chloro-4-fluoro-2-(N-((1S,2R)-2-(6-fluoro-2,3-dimethylphenyl)-1-(5-oxo-4,5-dihydro-1,3,4-oxadiazol-2-yl)propyl)sulfamoyl)benzamide], the figure is 120 nM; as for `COc1cc(Cl)ccc1S(=O)(=O)N[C@H](c1n[nH]c(=O)o1)[C@H](C)c1c(F)ccc(-c2ccn(C)n2)c1C` [Example 305, 4-chloro-N-((1S,2R)-2-(6-fluoro-2-methyl-3-(1-methyl-1H-pyrazol-3-yl)phenyl)-1-(5-oxo-4,5-dihydro-1,3,4-oxadiazol-2-yl)propyl)-2-methoxybenzenesulfonamide], 240 nM; as for `Cc1ccc(F)c([C@@H](C)[C@H](NS(=O)(=O)c2ccc(C#N)cc2)c2n[nH]c(=O)o2)c1C` [Example 341, 4-cyano-N-((1S,2R)-(6-fluoro-2,3-dimethylphenyl)-1-(5-oxo-4,5-dihydro-1,3,4-oxadiazol-2-yl)propyl)benzenesulfonamide], 410 nM.
As for `Cc1ccc(F)c([C@@H](C)[C@H](NS(=O)(=O)c2cc(OCC(F)F)ccc2C(N)=O)c2n[nH]c(=O)o2)c1C` [Example 263, 4-(2,2-difluoroethoxy)-2-(N-((1S,2R)-2-(6-fluoro-2,3-dimethylphenyl)-1-(5-oxo-4,5-dihydro-1,3,4-oxadiazol-2-yl)propyl)sulfamoyl)benzamide], the figure is 70 nM.
To `Cc1ccc(F)c([C@@H](C)[C@H](NS(=O)(=O)c2ccc(Cl)c3c2OCCC3(C)O)c2n[nH]c(=O)o2)c1C` (single isomer, unassigned) [Example 207B] belongs 90 nM.
`COc1cc(Cl)ccc1S(=O)(=O)N[C@H](c1n[nH]c(=O)o1)[C@H](C)c1c(F)ccc(C#N)c1C` [Example 104, 4-chloro-N-((1S,2R)-2-(3-cyano-6-fluoro-2-methylphenyl)-1-(5-oxo-4,5-dihydro-1,3,4-oxadiazol-2-yl)propyl)-2-methoxybenzenesulfonamide]: the IC50 was 840 nM.
Regarding `CCc1ccc(F)c([C@@H](C)[C@H](NS(=O)(=O)c2ccc(Cl)c(C(C)O)c2OC)c2n[nH]c(=O)o2)c1C` (stereo partly drawn) [Example 206A, 4-chloro-N-((1S,2R)-2-(3-ethyl-6-fluoro-2-methylphenyl)-1-(5-oxo-4,5-dihydro-1,3,4-oxadiazol-2-yl)propyl)-3-(1-hydroxyethyl)-2-methoxybenzenesulfonamide], the IC50 came to 150 nM.
As for `Cc1cc(F)c(F)c([C@@H](C)[C@H](NS(=O)(=O)c2ccc(Cl)cc2C(N)=O)c2n[nH]c(=O)o2)c1C` [Example 13, 5-chloro-2-(N-((1S,2R)-2-(2,3-difluoro-5,6-dimethylphenyl)-1-(5-oxo-4,5-dihydro-1,3,4-oxadiazol-2-yl)propyl)sulfamoyl)benzamide], the IC50 came out at 140 nM.
With `Cc1ccc(F)c([C@@H](C)[C@H](NS(=O)(=O)c2c(F)cc(Cl)cc2C(=O)O)c2n[nH]c(=O)o2)c1C` [Example 219, 5-chloro-3-fluoro-2-(N-((1S,2R)-2-(6-fluoro-2,3-dimethylphenyl)-1-(5-oxo-4,5-dihydro-1,3,4-oxadiazol-2-yl)propyl)sulfamoyl)benzoic acid], the half-maximal inhibitory concentration (IC50) came to 270 nM.
Consider `C[C@H](c1c(F)ccc2ccccc12)[C@H](NS(=O)(=O)c1ccc(Cl)c2c1OCCC2O)c1n[nH]c(=O)o1` (stereo partly drawn) [Example 233, 5-chloro-N-((1S,2R)-2-(2-fluoronaphthalene-1-yl)-1-(5-oxo-4,5-dihydro-1,3,4-oxadiazol-2-yl)propyl)-4-hydroxychroman-8-sulfonamide], for which the IC50 is 130 nM.
To `COC(=O)c1c(Cl)ccc(S(=O)(=O)N[C@H](c2n[nH]c(=S)o2)[C@H](C)c2cccc3c2CCC3)c1Cl` [Example 333, methyl 2,6-dichloro-3-(N-((1S,2R)-2-(2,3-dihydro-1H-inden-4-yl)-1-(5-thioxo-4,5-dihydro-1,3,4-oxadiazol-2-yl)propyl)sulfamoyl)benzoate] belongs 310 nM; to `Cc1ccc(F)c([C@@H](C)[C@H](NS(=O)(=O)c2ccc3c(c2)CCCO3)c2n[nH]c(=O)o2)c1C` [Example 183, N-((1S,2R)-2-(6-fluoro-2,3-dimethylphenyl)-1-(5-oxo-4,5-dihydro-1,3,4-oxadiazol-2-yl)propyl)chroman-6-sulfonamide], 320 nM.
As to `Cc1ccc(F)c([C@@H](C)[C@H](NS(=O)(=O)c2c(F)cccc2F)c2n[nH]c(=O)o2)c1C` [Example 110, 2,6-difluoro-N-((1S,2R)-2-(6-fluoro-2,3-dimethylphenyl)-1-(5-oxo-4,5-dihydro-1,3,4-oxadiazol-2-yl)propyl)benzenesulfonamide], the IC50 came out at 960 nM.
